Like-named read-outs stand apart in the source and are kept apart here.
How the values were obtained:
E. cloacae = format: cell-based, E. cloacae 218R1; conditions: E. cloacae, microdilution in MHB
Protocol: (§1) The following bacterial pathogens were used in this study: S. enterica subsp. enterica serovar Typhimurium ATCC 14028, E. coli O157:H7 [83], the clinical isolates S. aureus SAP0017 [84] and USA300 LAC [85], E. faecium #1-1 [85], A. baumannii Ab5075 [85] and E. cloacae 218R1 [85], as well as P. aeruginosa PAO1 [34], P. vulgaris HSC7200-T2 (Hancock Lab strain collection) and K. pneumoniae KPLN49 [85].
(§2) Overnight cultures were grown in LB at 37 °C with shaking at 250 rpm, except for E. faecium, which was grown in BHI medium.
(§3) The antimicrobial activity of the crocCATHs was evaluated with the broth microdilution method as described previously. MIC was defined as the first peptide or antibiotic concentration without visible bacterial growth. Reported values are the statistical mode of at least three independent experiments.

K. pneumoniae = assay: MIC, broth microdilution in MHB; format: cell-based, K. pneumoniae KPLN49
Protocol: as §1, §2, §3

A. baumannii = assay: MIC, broth microdilution in MHB; format: cell-based, A. baumannii Ab5075
Protocol: as §1, §2, §3

P. aeruginosa = assay: MIC, broth microdilution in MHB; format: cell-based, P. aeruginosa PAO1
Protocol: as §1, §2, §3

E. coli = format: cell-based, E. coli O157:H7; conditions: microdilution in MHB
Protocol: as §1, §2, §3

S. Typhimurium = format: cell-based, S. enterica subsp. enterica serovar Typhimurium ATCC 14028; conditions: S. Typhimurium, microdilution in MHB
Protocol: as §1, §2, §3

P. vulgaris = format: cell-based, P. vulgaris HSC7200-T2; conditions: microdilution in MHB
Protocol: as §1, §2, §3

planktonic A. baumannii = assay: Planktonic time-kill assay; format: cell-based; conditions: ~5 × 10^5 CFU/mL in MHB, at the MIC, 37 °C
Protocol: The bactericidal activity of As-CATH8 and antibiotics was evaluated against planktonic S. aureus SAP0017 and A. baumannii cells under similar conditions to those used in the antimicrobial assays. Bacteria were grown overnight in LB media and diluted to ~5 × 10^5 CFU/mL in MHB. […] Samples were taken at 0, 0.5, 1, 2 and 20 h after treatment and CFU counts determined by serial dilution and plating on LB agar.

A. baumannii biofilms = assay: Biofilm-killing assay; format: cell-based; conditions: A. baumannii 24 h biofilms, 10% TSB + 0.1% glucose, 64 × MIC
Protocol: (§4) Biofilm-killing assays were set up like the biofilm inhibition assays previously described. […] Plates were incubated at 37 °C and bacterial biomass was scraped out of the wells with cotton swabs at 0, 0.5, 1, 2 and 20 h after treatment. Cotton tips were placed in 1 mL of LB and sonicated for 5 min, and bacterial numbers were determined by serial dilution and plating on LB agar.

[1] = tested on: A. baumannii cytoplasmic membrane; assay: Membrane depolarization (DiSC3(5)) and permeabilization (PI) assay with CFU enumeration; format: cell-based; conditions: A. baumannii planktonic cells, 1 h treatment
Protocol: The cytoplasmic membrane depolarization and permeabilization activities of As-CATH8 compared to those of antibiotics (vancomycin or polymyxin B) were assessed against S. aureus SAP0017 and A. baumannii using the membrane-potential sensitive dye DiSC3(5) and the cell viability dye PI [36]. The membrane-permeabilizing peptide mastoparan was included as a positive control and water served as a negative (untreated) control.
Briefly, after growth in LB, mid-log phase bacteria were centrifuged and washed twice with 5 mM HEPES buffer supplemented with 20 mM glucose (HEPES-Gluc). Cell density was adjusted to ~10^7 CFU/mL in (HEPES-Gluc) supplemented with 0.1 M KCl. […] After incubation, 190 μL/well of the cultures were added to black opaque 96-well plates (Corning Inc.) and pre-treatment fluorescence was monitored every 2 min for a total of 10 min using a Synergy H1 Hybrid Multi-Mode Reader (BioTek, Winooski, VT, USA). […] After assessing that fluorescence values remained stable, bacteria were treated with 10 μL/well of peptide, antibiotic or water. Fluorescence was quantified 1 h after treatment under the same conditions and represented as a function of peptide concentration, subtracting the background of untreated cells.
To assess bacterial survival after treatment, supernatants from the fluorescence assays were serial diluted and plated for CFU enumeration. […]

[2] = tested on: linearized plasmid pET28a; assay: Agarose gel electrophoretic mobility shift assay (DNA binding)
Protocol: To investigate the DNA binding capacity of As-CATH8, vancomycin and polymyxin B, an agarose gel electrophoretic mobility shift assay was performed as previously described. Briefly, overnight cultures of E. coli BL21 Star cells harboring the pET28a plasmid were grown in LB supplemented with kanamycin (30 μg/mL). The pET28a plasmid was purified using the QIAprep Spin Miniprep Kit (QIAGEN Inc., Hilden, Germany) and linearized with the SmaI endonuclease (Thermofisher Scientific, Waltham, MA, USA). Linear pET28a was purified from an agarose gel using the QIAquick Gel Extraction Kit (QIAGEN Inc., Hilden, Germany).
Twofold decreasing amounts of As-CATH8 or antibiotics were incubated for 1 h at room temperature with 100 ng of linear pET28a in 10 μL of binding buffer (5% glycerol, 10 mM Tris-HCl pH 8.0, 1 mM EDTA, 1 mM DTT, 20 mM KCl and 50 μg/mL BSA). After this, 2 μL of 6× DNA Loading Dye (Thermofisher Scientific, Waltham, MA, USA) was added and the mixture was loaded onto a 1% agarose gel in TAE buffer containing SYBR Safe (Thermofisher Scientific, Waltham, MA, USA). The gel was run at 100 V for 1 h and the GeneRuler 1 kb DNA ladder (Thermofisher Scientific, Waltham, MA, USA) was used as a molecular weight marker. Finally, the gel was imaged on a ChemiDoc Touch Imaging System (BioRad Laboratories, Montreal, QC, Canada).

[3] = cited from earlier work
From the text: It is well-known that HDPs can interact with multiple extracellular and intracellular targets to exert their antimicrobial and antibiofilm effects. […] Although it seems likely that compromising the integrity of the membrane is a key component of the killing mechanism of As-CATH8, this may not always be a fatal event and additional or alternative activities might also play a significant role. Two main elements support this idea: first, maxim ...

S. aureus = assay: MIC, broth microdilution in MHB; format: cell-based
Protocol: as §1, §2, §3

E. faecium = assay: MIC, broth microdilution in MHB; format: cell-based, E. faecium #1-1
Protocol: as §1, §2, §3

[4] = tested on: S. aureus SAP0017 biofilms; assay: Biofilm-killing assay; format: cell-based; conditions: S. aureus 24 h biofilms, 64 × MIC
Protocol: as §4

[5] = tested on: S. aureus SAP0017 cytoplasmic membrane; assay: Membrane depolarization (DiSC3(5)) and permeabilization (PI) assay with CFU enumeration; format: cell-based; conditions: S. aureus planktonic cells, 1 h treatment
[6] = first concentration without visible growth, mode of at least three independent experiments

Compound: polymyxin B
- MIC (E. cloacae; [6]): 0.5 µM
- MIC (E. cloacae; value in brackets of Table S4): 0.6 µg/mL
- MIC (K. pneumoniae; [6]): 0.5 µM
- MIC (K. pneumoniae; value in brackets of Table S4): 0.6 µg/mL
- MIC (A. baumannii; [6]): 0.5 µM
- MIC (A. baumannii; value in brackets of Table S4): 0.6 µg/mL
- MIC (P. aeruginosa; [6]): 0.5 µM
- MIC (P. aeruginosa; value in brackets of Table S4): 0.6 µg/mL
- MIC (E. coli; [6]): 0.5 µM
- MIC (E. coli; value in brackets of Table S4): 0.6 µg/mL
- MIC (S. Typhimurium; [6]): 1 µM
- MIC (S. Typhimurium; value in brackets of Table S4): 1.2 µg/mL
- MIC (P. vulgaris; [6]): > 64 µM
- MIC (P. vulgaris; value in brackets of Table S4): > 77 µg/mL
- Time to complete killing of planktonic cells (planktonic A. baumannii): up to 20 h
- Time to complete eradication of biofilms (A. baumannii biofilms): 20 h
- Membrane depolarization (DiSC3(5) fluorescence) and permeabilization (PI fluorescence), result in words [1]: almost no effect
- Capacity for binding to DNA, result in words [2]: weak
- Net charge [3]: +5

Compound: CN[C@H](CC(C)C)C(=O)N[C@H]1C(=O)N[C@@H](CC(N)=O)C(=O)N[C@H]2C(=O)N[C@H]3C(=O)N[C@H](C(=O)N[C@H](C(=O)O)c4cc(O)cc(O)c4-c4cc3ccc4O)[C@H](O)c3ccc(c(Cl)c3)Oc3cc2cc(c3O[C@@H]2O[C@H](CO)[C@@H](O)[C@H](O)[C@H]2O[C@H]2C[C@](C)(N)[C@H](O)[C@H](C)O2)Oc2ccc(cc2Cl)[C@H]1O [Vancomycin, vancomycin]
- MIC (S. aureus; Staphylococcus aureus, first concentration without visible growth, mode of at least three independent experiments): 0.5 µM
- MIC (S. aureus; Staphylococcus aureus, value in brackets of Table S4): 0.7 µg/mL
- MIC (S. aureus; [6]): 0.5 µM
- MIC (E. faecium; Enterococcus faecium, first concentration without visible growth, mode of at least three independent experiments): > 64 µM
- MIC (E. faecium; Enterococcus faecium, value in brackets of Table S4): > 93 µg/mL
- MIC (E. faecium; [6]): > 64 µM
- Effect on biofilms at 2 h, result in words ([4]; 2 h time point): modest effect
- Effect on biofilms after 20 h, result in words ([4]; 20 h of treatment): potent activity
- Membrane depolarization (DiSC3(5) fluorescence) and permeabilization (PI fluorescence), result in words [5]: almost no effect
- Capacity for binding to DNA, result in words [2]: no
- Net charge [3]: +1

From publication PMC9686568, “Novel Alligator Cathelicidin As-CATH8 Demonstrates Anti-Infective Activity against Clinically Relevant and Crocodylian Bacterial Pathogens” (Antibiotics, 2022)
